Measured values reported in ChEMBL document CHEMBL1126373, “HIV and reverse transcriptase inhibition by tannins” (Bioorg Med Chem Lett, 1992).
Calls of active or inactive are those of the source. No cut-off for these calls is given here.

Assays:
[1] = system: Human immunodeficiency virus 1; assay: Anti-HIV activity in cell culture assay expressed as EC50 values.; assay type: functional, organism-based; details: Human immunodeficiency virus 1
[2] = system: Human immunodeficiency virus 1; assay: Compound was tested for anti-HIV activity in cell culture assay expressed as IC50 values; assay type: functional, organism-based
[3] = target: Human immunodeficiency virus type 1 reverse transcriptase (Human immunodeficiency virus 1) (UniProt Q72547); assay: Inhibition against HIV- reverse transcriptase in cell culture at 20 ug/mL
[4] = system: Human immunodeficiency virus 1; assay: Therapeutic index was determined; details: read-out: Therapeutic index
[5] = system: Human immunodeficiency virus 1; assay: Inhibition against HIV replication in cell culture at 20 ug/mL; assay type: functional; details: Human immunodeficiency virus 1
[6] = system: Human immunodeficiency virus 1; assay: Compound was tested for anti-HIV activity in cell culture assay; active anti HIV agent; assay type: functional, organism-based
[7] = system: Human immunodeficiency virus 1; assay: Anti-HIV activity in cell culture assay expressed as IC50 values.; assay type: functional, organism-based; details: Human immunodeficiency virus 1

SMILES	EC50 [1] [µM]	IC50 [2] [µM]	inhibition [3] [%]	selectivity ratio [4]	inhibition at 20 µg/mL [5] [%]	Activity [6]	IC50 [7] [µM]
O=C(O[C@@H]1O[C@H](CO)[C@@H](O)[C@H](O)[C@H]1O)c1cc(O)c(O)c(O)c1	100	80	18	0.8	0		
O=C(Oc1c(O)cc(C(=O)O[C@@H]2C[C@](O)(C(=O)O)C[C@@H](OC(=O)c3cc(O)c(O)c(O)c3)[C@H]2OC(=O)c2cc(O)c(O)c(O)c2)cc1O)c1cc(O)c(O)c(O)c1						active anti HIV agent	
O=C1OCC2OC(=O)c3cc(O)c(O)c(O)c3-c3c(O)c(O)c(O)c4c3C(=O)OC(C2OC(=O)c2cc(O)c(O)c(O)c2-c2c1cc(O)c(O)c2O)C1OC(=O)c2c-4c(O)c(O)c(O)c2[C@@H]1c1c(O)cc(O)c2c1O[C@H](c1ccc(O)c(O)c1)[C@@H](O)C2 (stereo partly specified)	4		24	3.8	88		15
O=C(OC[C@@H]1O[C@@H](OC(=O)c2cc(O)c(O)c(O)c2)[C@@H](OC(=O)c2cc(O)c(O)c(O)c2)[C@@H](OC(=O)c2cc(O)c(O)c(O)c2)[C@@H]1OC(=O)c1cc(O)c(O)c(O)c1Oc1cc2c(c(O)c1O)-c1c(cc(O)c(O)c1O)C(=O)OC[C@@H]1O[C@@H](OC(=O)c3cc(O)c(O)c(O)c3)[C@@H](OC(=O)c3cc(O)c(O)c(O)c3)[C@@H](OC(=O)c3cc(O)c(O)c(O)c3)[C@@H]1OC2=O)c1cc(O)c(O)c(O)c1	12		0	3.3	50		39
O=C(OC[C@H]1OC(O)[C@@](O)(COC(=O)c2cc(O)c(O)c(O)c2)[C@@H]1O)c1cc(O)c(O)c(O)c1 (stereo partly specified) [HAMAMELITANNIN]	50		16	0.9	40		45
O=C(O[C@@H]1C[C@](OC(=O)c2cc(O)c(O)c(O)c2)(C(=O)O)C[C@@H](OC(=O)c2cc(O)c(O)c(O)c2)[C@H]1OC(=O)c1cc(O)c(O)c(O)c1)c1cc(O)c(O)c(O)c1						Active	
O=C1O[C@H]2[C@H](O)[C@@H](OC(=O)c3cc(O)c(O)c4c3[C@@H]3C1=CC(=O)C(O)(O)C3(O)O4)[C@H](OC(=O)c1cc(O)c(O)c(O)c1)O[C@@H]2CO (stereo partly specified) [FUROSIN]	50		38	1.4	33		70
O=C(Oc1c(O)cc(C(=O)O[C@H]2[C@H](OC(=O)c3cc(O)c(O)c(O)c3)C[C@](O)(C(=O)O)C[C@H]2OC(=O)c2cc(O)c(O)c(O)c2)cc1O)c1cc(O)c(O)c(O)c1						active anti HIV agent	
Oc1cc(O)c2c(c1)O[C@@]1(c3ccc(O)c(O)c3)Oc3cc(O)c4c(c3[C@@H]2[C@H]1O)O[C@H](c1ccc(O)c(O)c1)[C@H](O)[C@H]4c1c(O)cc(O)c2c1O[C@H](c1ccc(O)c(O)c1)[C@H](O)C2 [CINNAMTANNIN B1]	21		13	> 1.2	90		> 25
O=C(O[C@@H]1[C@@H](c2c(O)cc(O)c3c2O[C@H](c2ccc(O)c(O)c2)[C@H](OC(=O)c2cc(O)c(O)c(O)c2)C3)c2c(O)cc(O)c([C@H]3c4c(O)cc(O)cc4O[C@H](c4ccc(O)c(O)c4)[C@@H]3OC(=O)c3cc(O)c(O)c(O)c3)c2O[C@@H]1c1ccc(O)c(O)c1)c1cc(O)c(O)c(O)c1	17		13	> 1.5	47		> 25
O=C1O[C@H]2[C@@H]3OC(=O)c4cc(O)c(O)c(O)c4-c4c(cc(O)c(O)c4O)C(=O)OC[C@H]2O[C@@H](OC(=O)c2cc(O)c(O)c(O)c2)[C@@H]3OC(=O)c2cc(O)c(O)c3c2[C@@H]2C1=CC(=O)C(O)(O)C2(O)O3 (stereo partly specified)	12		15	1.2	92		14
O=C(O)C1=C[C@@H](O)[C@@H](O)[C@H](OC(=O)c2cc(O)c(O)c(OC(=O)c3cc(O)c(O)c(O)c3)c2)C1	30		31	1.3	60		40
O=C1OC(C2OC(=O)c3cc(O)c(O)c(O)c3-c3c(O)c(O)c4oc(=O)c5c(c(O)c(O)c6oc(=O)c3c4c65)-c3c(cc(O)c(O)c3O)C(=O)OCC2O)C2OC(=O)c3c(c(O)c(O)c(O)c3[C@H]2O)-c2c1cc(O)c(O)c2O (stereo partly specified)						active anti HIV agent	
O=C1OCC2OC(=O)c3cc(O)c(O)c(O)c3-c3c(O)c(O)c(O)c4c3C(=O)OC(C2OC(=O)c2cc(O)c(O)c(O)c2-c2c1cc(O)c(O)c2O)C1OC(=O)c2c-4c(O)c(O)c(O)c2[C@@H]1[C@@]1(O)O[C@@H](CO)[C@@H](O)[C@H]1O (stereo partly specified)	35		27	0.4	35		15
O=C(Oc1c(O)cc(C(=O)O[C@@H]2C[C@@](O)(C(=O)O)C[C@@H](OC(=O)c3cc(O)c(O)c(O)c3)[C@@H]2OC(=O)c2cc(O)c(O)c(O)c2)cc1O)c1cc(O)c(O)c(O)c1						active anti HIV agent	
CC1(C)CC[C@]2(C(=O)O)CC[C@]3(C)C(=CCC4[C@@]5(C)C[C@@H](O)[C@@H]6OC(=O)c7cc(O)c(O)c(O)c7-c7c(cc(O)c(O)c7O)C(=O)OC[C@@]6(CO)C5CC[C@]43C)C2C1 (stereo partly specified)	40		18	1	23		40
O=C1c2c(O)cc(O)cc2O[C@H](c2ccc(O)c(O)c2)[C@H]1O [(+)-TAXIFOLIN]	45		22	1	40		45
O=C1O[C@H]2[C@H](OC(=O)c3cc(O)c(O)c(O)c3)[C@@H](OC(=O)c3cc(O)c(O)c4c3[C@@H]3C1=CC(=O)C(O)(O)C3(O)O4)[C@H](OC(=O)c1cc(O)c(O)c(O)c1)O[C@@H]2COC(=O)c1cc(O)c(O)c(O)c1 (stereo partly specified) [TERCHEBIN]	21		13	1.9	50		40
O=C1OCC2OC(=O)c3cc(O)c(O)c(O)c3-c3c(O)c(O)c(O)c4c3C(=O)OC(C2OC(=O)c2cc(O)c(O)c(O)c2-c2c1cc(O)c(O)c2O)C1OC(=O)c2c-4c(O)c(O)c(O)c2[C@H]1O (stereo partly specified)	16		45	0.9	90		15
Oc1cc(O)c2c(c1)O[C@H](c1ccc(O)c(O)c1)[C@H](O)[C@H]2c1c(O)cc(O)c2c1O[C@H](c1ccc(O)c(O)c1)[C@H](O)[C@H]2c1c(O)cc(O)c2c1O[C@H](c1ccc(O)c(O)c1)[C@H](O)C2 [PROCYANIDIN C1]	> 25		18	> 1	68		> 25
O=C1OCC2OC(=O)c3cc(O)c(O)c(O)c3-c3c(O)c(O)c(O)c4c3C(=O)OC(C2OC(=O)c2cc(O)c(O)c(O)c2-c2c1cc(O)c(O)c2O)C1OC(=O)c2c-4c(O)c(O)c(O)c2[C@@H]1O (stereo partly specified)	15		40	1	90		15
O=C(O[C@@H]1O[C@H]2COC(=O)c3cc(O)c(O)c(O)c3-c3c(O)c(O)c(O)c(Oc4cc(C(=O)O[C@H]5O[C@H]6COC(=O)c7cc(O)c(O)c(O)c7-c7c(cc(O)c(O)c7O)C(=O)O[C@H]6[C@@H]6OC(=O)c7cc(O)c(O)c(O)c7-c7c(cc(O)c(O)c7O)C(=O)O[C@H]56)cc(O)c4O)c3C(=O)O[C@H]2[C@@H]2OC(=O)c3cc(O)c(O)c(O)c3-c3c(cc(O)c(O)c3O)C(=O)O[C@H]12)c1cc(O)c(O)c(O)c1	15		34	1.4	38		21
O=C(O)C1=C[C@@H](O)[C@@H](O)[C@H](OC(=O)c2cc(O)c(O)c(O)c2)C1	18		0	1.4	90		25
CC1(C)CC[C@]2(C(=O)O[C@@H]3O[C@H](CO)[C@@H](O)[C@H](O)[C@H]3O)CC[C@]3(C)C(=CCC4[C@@]5(C)C[C@@H](O)[C@@H]6OC(=O)c7cc(O)c(O)c(O)c7-c7c(cc(O)c(O)c7O)C(=O)OC[C@@]6(CO)C5CC[C@]43C)C2C1 (stereo partly specified)	18		17	1.6	47		28
O=C1OCC2OC(=O)c3cc(O)c(O)c(O)c3-c3c(O)c(O)c(O)c4c3C(=O)OC(C2OC(=O)c2cc(O)c(O)c(O)c2-c2c1cc(O)c(O)c2O)C1OC(=O)C2C4=C(O)C(=O)C23Oc2cc(O)c4c(c2[C@H]13)O[C@H](c1ccc(O)c(O)c1)[C@@H](O)C4 (stereo partly specified)	4		23	3.8	89		15
O=C(OC[C@H]1O[C@@H](OC(=O)c2cc(O)c(O)c(O)c2)[C@H](OC(=O)c2cc(O)c(O)c(O)c2)[C@@H](O)[C@@H]1O)c1cc(O)c(O)c(O)c1	50		16	0.4	20		19
O=C(OC[C@H]1O[C@@H](OC(=O)c2cc(O)c(O)c(O)c2)[C@H](O)[C@@H](O)[C@@H]1O)c1cc(O)c(O)c(O)c1	50	38	14	0.8	40		
O=C(O[C@@H]1O[C@@H]2COC(=O)c3cc(O)c(O)c(O)c3-c3c(cc(O)c(O)c3O)C(=O)O[C@H]([C@H]1O)[C@@H]2O)c1cc(O)c(O)c(O)c1 [CORILAGIN]	15		57	1	90		15
O=C1OC[C@H]2O[C@@H](O)[C@H](O)[C@@H](O)[C@@H]2OC(=O)c2cc(O)c(O)c(O)c2-c2c(O)c(O)c3oc(=O)c4c(c(O)c(O)c5oc(=O)c2c3c54)-c2c1cc(O)c(O)c2O						active anti HIV agent	
